Measurements reported in patent publication US20260315464A1, “COMPOSITIONS, METHODS, AND SYSTEMS FOR MODULATING SPLICING OF MSH3” (REVIR THERAPEUTICS, INC., priority 2023, published 2026).
One block for each compound: values may come before it.

Test system: MSH3
Experiment: QPCR assay for levels of MSH3 upon compound treatment in HEK293T or AD293 cells (fold-change of MSH3 transcript, EC50 of MSH3 downregulation; total MSH3 exons 13/14, exons 20/21; Table 8)
Type: cell-based
Conditions: for mrna remaining at 1 µM / mrna remaining at 10 µM: Homo sapiens, fold-change of the MSH3 transcript, normalized to GAPDH; for mrna remaining at 1 µM: 1 μM compound; for mrna remaining at 10 µM: 10 μM compound; for EC50: EC50 of MSH3 downregulation, XtalPi
How it was run: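 MSH3 mRNA was quantified by TaqMan qPCR covering exons 13/14, exons 20/21, exon 13/PE14A and exon 20/PE21A, with GAPDH as reference. Cells used were HEK293T or AD293, treated with compound at 1 μM and […].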

Compound: Cc1nn(C)nc1-c1cnc2c(c1)C(=O)N(c1ccc(N3C[C@H]4CC[C@@H](C3)N4)nn1)C2 [Compound 568, 6-(6-((1R,5S)-3,8-diazabicyclo[3.2.1]octan-3-yl)pyridazin-3-yl)-3-(2,5-dimethyl-2H-1,2,3-triazol-4-yl)-6,7-dihydro-5H-pyrrolo[3,4-b]pyridin-5-one]
mrna remaining at 1 µM: 77% | mrna remaining at 10 µM: 46%

EC50: 349 nM
Compound: CN(c1ccc(N2Cc3ncc(-c4nn(C)nc4Cl)cc3C2=O)nn1)[C@H]1C[C@]2(C)CC[C@](C)(C1)N2 [Compound 589, 3-(5-chloro-2-methyl-2H-1,2,3-triazol-4-yl)-6-(6-(((1R,3s,5S)-1,5-dimethyl-8-azabicyclo[3.2.1]octan-3-yl)(methyl)amino)pyridazin-3-yl)-6,7-dihydro-5H-pyrrolo[3,4-b]pyridin-5-one]
mrna remaining at 1 µM: 20% | mrna remaining at 10 µM: 11%

EC50: 569 nM
Compound: Cc1nn(C)nc1-c1cnc2c(n1)C(=O)N(c1ccc(N(C)[C@H]3C[C@]4(C)CC[C@](C)(C3)N4)nn1)C2 [Compound 590, 3-(2,5-dimethyl-2H-1,2,3-triazol-4-yl)-6-(6-(((1R,3s,5S)-1,5-dimethyl-8-azabicyclo[3.2.1]octan-3-yl)(methyl)amino)pyridazin-3-yl)-6,7-dihydro-5H-pyrrolo[3,4-b]pyrazin-5-one]
mrna remaining at 1 µM: 24% | mrna remaining at 10 µM: 9%

EC50: 634 nM
Compound: Cc1cn(-c2cc(C#N)c3c(c2)C(=O)N(c2ccc(O[C@H]4C[C@]5(C)CC[C@](C)(C4)N5)nn2)C3)nn1 [Compound 591, 2-(6-(((1R,3s,5S)-1,5-dimethyl-8-azabicyclo[3.2.1]octan-3-yl)oxy)pyridazin-3-yl)-6-(4-methyl-1H-1,2,3-triazol-1-yl)-1-oxoisoindoline-4-carbonitrile]
mrna remaining at 1 µM: 109% | mrna remaining at 10 µM: 91%

Compound: Cc1nn(C)nc1-c1ncc2c(n1)C(=O)N(c1ccc(O[C@H]3C[C@]4(C)CC[C@](C)(C3)N4)nn1)C2 [Compound 592, 2-(2,5-dimethyl-2H-1,2,3-triazol-4-yl)-6-(6-(((1R,3s,5S)-1,5-dimethyl-8-azabicyclo[3.2.1]octan-3-yl)oxy)pyridazin-3-yl)-5,6-dihydro-7H-pyrrolo[3,4-d]pyrimidin-7-one]
mrna remaining at 1 µM: 90% | mrna remaining at 10 µM: 54%

Compound: Cc1nn(C)cc1-c1cc2c(cn1)CN(c1ccc(OC3CC(C)(C)NC4(CCC4)C3)nn1)C2=O (stereo not shown) [Compound 593, 6-(1,3-dimethyl-1H-pyrazol-4-yl)-2-(6-((6,6-dimethyl-5-azaspiro[3.5]nonan-8-yl)oxy)pyridazin-3-yl)-2,3-dihydro-1H-pyrrolo[3,4-c]pyridin-1-one]
mrna remaining at 1 µM: 105% | mrna remaining at 10 µM: 34%

Compound: CC(C)(O)Cn1cc(-c2cc3c(cn2)CN(c2ccc(O[C@H]4C[C@]5(C)CC[C@](C)(C4)N5)nn2)C3=O)cn1 [Compound 594, 2-(6-(((1R,3s,5S)-1,5-dimethyl-8-azabicyclo[3.2.1]octan-3-yl)oxy)pyridazin-3-yl)-6-(1-(2-hydroxy-2-methylpropyl)-1H-pyrazol-4-yl)-2,3-dihydro-1H-pyrrolo[3,4-c]pyridin-1-one]
mrna remaining at 1 µM: 79% | mrna remaining at 10 µM: 112%

Compound: Cc1nn(C)cc1-c1cc2c(nn1)CN(c1ccc(O[C@H]3C[C@]4(C)CC[C@](C)(C3)N4)nn1)C2=O [Compound 595, 3-(1,3-dimethyl-1H-pyrazol-4-yl)-6-(6-(((1R,3s,5S)-1,5-dimethyl-8-azabicyclo[3.2.1]octan-3-yl)oxy)pyridazin-3-yl)-6,7-dihydro-5H-pyrrolo[3,4-c]pyridazin-5-one]
mrna remaining at 1 µM: 91% | mrna remaining at 10 µM: 18%

Compound: Cc1nn(C)nc1-c1cc2c(nn1)CN(c1ccc(O[C@H]3C[C@]4(C)CC[C@](C)(C3)N4)nn1)C2=O [Compound 596, 3-(2,5-dimethyl-2H-1,2,3-triazol-4-yl)-6-(6-(((1R,3s,5S)-1,5-dimethyl-8-azabicyclo[3.2.1]octan-3-yl)oxy)pyridazin-3-yl)-6,7-dihydro-5H-pyrrolo[3,4-c]pyridazin-5-one]
mrna remaining at 1 µM: 88% | mrna remaining at 10 µM: 106%

Compound: Cc1nn(C)cc1-c1cnc2c(c1)C(=O)N(c1ccc(OC3CC(C)(C)NC4(CCC4)C3)nn1)C2 (stereo not shown) [Compound 597, 3-(1,3-dimethyl-1H-pyrazol-4-yl)-6-(6-((6,6-dimethyl-5-azaspiro[3.5]nonan-8-yl)oxy)pyridazin-3-yl)-6,7-dihydro-5H-pyrrolo[3,4-b]pyridin-5-one]
mrna remaining at 1 µM: 98% | mrna remaining at 10 µM: 29%

Compound: Cc1ncc(-c2cnc3c(c2)C(=O)N(c2ccc(O[C@H]4C[C@]5(C)CC[C@](C)(C4)N5)nn2)C3)s1 [Compound 598, 6-(6-(((1R,3s,5S)-1,5-dimethyl-8-azabicyclo[3.2.1]octan-3-yl)oxy)pyridazin-3-yl)-3-(2-methylthiazol-5-yl)-6,7-dihydro-5H-pyrrolo[3,4-b]pyridin-5-one]
mrna remaining at 1 µM: 62% | mrna remaining at 10 µM: 52%

Compound: Cn1ncc(-c2cnc3c(c2)C(=O)N(c2ccc(O[C@H]4C[C@]5(C)CC[C@](C)(C4)N5)nn2)C3)n1 [Compound 599, 6-(6-(((1R,3s,5S)-1,5-dimethyl-8-azabicyclo[3.2.1]octan-3-yl)oxy)pyridazin-3-yl)-3-(2-methyl-2H-1,2,3-triazol-4-yl)-6,7-dihydro-5H-pyrrolo[3,4-b]pyridin-5-one]
mrna remaining at 1 µM: 94% | mrna remaining at 10 µM: 24%

Compound: Cc1nn(C)nc1-c1cnc2c(c1)C(=O)N(c1ccc(N3CCN[C@@H](C(C)(C)C)C3)nn1)C2 [Compound 600, (S)-6-(6-(3-(tert-butyl)piperazin-1-yl)pyridazin-3-yl)-3-(2,5-dimethyl-2H-1,2,3-triazol-4-yl)-6,7-dihydro-5H-pyrrolo[3,4-b]pyridin-5-one]
mrna remaining at 1 µM: 104% | mrna remaining at 10 µM: 14%

Compound: Cn1ncc(-c2cnc3c(c2)C(=O)N(c2ccc(OC4CC(C)(C)NC5(CCC5)C4)nn2)C3)n1 (stereo not shown) [Compound 601, 6-(6-((6,6-dimethyl-5-azaspiro[3.5]nonan-8-yl)oxy)pyridazin-3-yl)-3-(2-methyl-2H-1,2,3-triazol-4-yl)-6,7-dihydro-5H-pyrrolo[3,4-b]pyridin-5-one]
mrna remaining at 1 µM: 117% | mrna remaining at 10 µM: 82%

Compound: Cc1nn(C)cc1-c1cnc2c(c1)C(=O)N(c1ccc(N3CCN[C@@H](C(C)C)C3)nn1)C2 [Compound 602, (S)-3-(1,3-dimethyl-1H-pyrazol-4-yl)-6-(6-(3-isopropylpiperazin-1-yl)pyridazin-3-yl)-6,7-dihydro-5H-pyrrolo[3,4-b]pyridin-5-one]
mrna remaining at 1 µM: 64% | mrna remaining at 10 µM: 29%

Compound: Cc1nn(C)nc1-c1cnc2c(c1)C(=O)N(c1ccc(N3CCC4(CCCN4)CC3)nn1)C2 [Compound 603, 6-(6-(1,8-diazaspiro[4.5]decan-8-yl)pyridazin-3-yl)-3-(2,5-dimethyl-2H-1,2,3-triazol-4-yl)-6,7-dihydro-5H-pyrrolo[3,4-b]pyridin-5-one]
mrna remaining at 1 µM: 155% | mrna remaining at 10 µM: 94%

Compound: CN(c1ccc(N2Cc3ncc(-c4cnn(CC(C)(C)O)c4)cc3C2=O)nn1)[C@H]1C[C@]2(C)CC[C@](C)(C1)N2 [Compound 604, 6-(6-(((1R,3s,5S)-1,5-dimethyl-8-azabicyclo[3.2.1]octan-3-yl)(methyl)amino)pyridazin-3-yl)-3-(1-(2-hydroxy-2-methylpropyl)-1H-pyrazol-4-yl)-6,7-dihydro-5H-pyrrolo[3,4-b]pyridin-5-one]
mrna remaining at 1 µM: 63% | mrna remaining at 10 µM: 93%

Compound: Cn1nc(Cl)c(-c2cnc3c(c2)C(=O)N(c2ccc(O[C@@H]4CCC(C)(C)NC(C)(C)C4)nn2)C3)n1 [Compound 605, (R)-3-(5-chloro-2-methyl-2H-1,2,3-triazol-4-yl)-6-(6-((2,2,7,7-tetramethylazepan-4-yl)oxy)pyridazin-3-yl)-6,7-dihydro-5H-pyrrolo[3,4-b]pyridin-5-one]
mrna remaining at 1 µM: 82% | mrna remaining at 10 µM: 56%

Compound: Cn1ncc(-c2cnc3c(c2)C(=O)N(c2ccc(S[C@H]4C[C@]5(C)CC[C@](C)(C4)N5)nn2)C3)n1 [Compound 606, 6-(6-(((1R,3s,5S)-1,5-dimethyl-8-azabicyclo[3.2.1]octan-3-yl)thio)pyridazin-3-yl)-3-(2-methyl-2H-1,2,3-triazol-4-yl)-6,7-dihydro-5H-pyrrolo[3,4-b]pyridin-5-one]
mrna remaining at 1 µM: 57% | mrna remaining at 10 µM: 25%

Compound: Cn1nc(Cl)c(-c2cnc3c(c2)C(=O)N(c2ccc(O[C@H]4CCC(C)(C)NC(C)(C)C4)nn2)C3)n1 [Compound 607, (S)-3-(5-chloro-2-methyl-2H-1,2,3-triazol-4-yl)-6-(6-((2,2,7,7-tetramethylazepan-4-yl)oxy)pyridazin-3-yl)-6,7-dihydro-5H-pyrrolo[3,4-b]pyridin-5-one]
mrna remaining at 1 µM: 72% | mrna remaining at 10 µM: 9%

Compound: Cn1cc(-c2cnc3c(c2)C(=O)N(c2ccc(OC4CC(C)(C)NC(C)(C)C4)nn2)C3)c(Cl)n1 [Compound 608, 3-(3-chloro-1-methyl-1H-pyrazol-4-yl)-6-(6-((2,2,6,6-tetramethylpiperidin-4-yl)oxy)pyridazin-3-yl)-6,7-dihydro-5H-pyrrolo[3,4-b]pyridin-5-one]
mrna remaining at 1 µM: 86% | mrna remaining at 10 µM: 20%

Compound: CN(c1ccc(N2Cc3ncc(-c4cn(C)nc4Cl)cc3C2=O)nn1)[C@H]1C[C@]2(C)CC[C@](C)(C1)N2 [Compound 609, 3-(3-chloro-1-methyl-1H-pyrazol-4-yl)-6-(6-(((1R,3s,5S)-1,5-dimethyl-8-azabicyclo[3.2.1]octan-3-yl)(methyl)amino)pyridazin-3-yl)-6,7-dihydro-5H-pyrrolo[3,4-b]pyridin-5-one]
mrna remaining at 1 µM: 39% | mrna remaining at 10 µM: 7%

Compound: Cn1nc(Cl)c(-c2cnc3c(c2)C(=O)N(c2ccc(S[C@H]4C[C@]5(C)CC[C@](C)(C4)N5)nn2)C3)n1 [Compound 610, 3-(5-chloro-2-methyl-2H-1,2,3-triazol-4-yl)-6-(6-(((1R,3s,5S)-1,5-dimethyl-8-azabicyclo[3.2.1]octan-3-yl)thio)pyridazin-3-yl)-6,7-dihydro-5H-pyrrolo[3,4-b]pyridin-5-one]
mrna remaining at 1 µM: 93% | mrna remaining at 10 µM: 66%
